This passage reports IC50 results from publication PMC12645083, “Microwave‐Enhanced Synthesis of 2‐Styrylquinoline‐4‐Carboxamides With Promising Anti‐Lymphoma Activity” (Archiv Der Pharmazie, 2025).

The structures appear in SMILES notation. Like-named read-outs stand apart in the source and are kept apart here.

Format in all cases: cell-based
One assay has as its system HD-MB03. Briefly: In vitro antiproliferative activity, resazurin cell viability. The note with it: Homo sapiens, medulloblastoma cells, 72 h of treatment, mean ± SEM, at least three experiments. The protocol:
(§1) To test the newly synthesized compounds, various human cell lines were employed. HD‐MB03 cells were purchased from DSMZ (Braunschweig, Germany), while A549, MDA‐MB‐231, RPMI‐8420, SU‐DHL‐8, TOLEDO, VL51, SU‐DHL‐1, SU‐DHL‐18, and KM‐H2 were obtained from ATCC (Manassas, VA, USA). Cells were cultured in DMEM (for MDA‐MB‐231 and A549) or RPMI‐1640 (for RPMI‐8420, SU‐DHL‐8, TOLEDO, VL51, SU‐DHL‐1, SU‐DHL‐18, KM‐H2, and HD‐MB03) media (Gibco, Milan, Italy). Both media were supplemented with 115 units/mL penicillin G (Gibco, Milan, Italy), 115 µg/mL streptomycin (Invitrogen, Milan, Italy), and 10% fetal bovine serum (Invitrogen, Milan, Italy). Peripheral blood mononuclear cells (PBMCs) were isolated from healthy donors as previously described. For cytotoxicity assays, PBMCs were resuspended at 5 × 10⁵ cells/mL in complete RPMI medium with or without 2.5 µg/mL phytohemagglutinin (PHA) (Irvine Scientific) to stimulate T‐cell activation and proliferation. All cell lines were maintained at 37°C in a humidified atmosphere containing 5% CO₂. All compounds were dissolved in DMSO at a 10 mM stock concentration. For dose–response assays, cells were seeded in 96‐well plates at densities optimized for each cell line: HD‐MB03 at 10,000 cells/well, A549 at 4000 cells/well, and MDA‐MB‐231 at 7000 cells/well. All other cell lines were seeded at 20,000 cells/well in a final volume of 100 µL per well. After 24 h, cells were treated with a 6‐point serial dilution of compounds starting from 10 µM, in triplicate for statistical analysis. Seventy‐2 h posttreatment, 10 µL of resazurin solution (100 µg/mL) was added to each well, and cells were incubated for an additional 3–6 h. Fluorescence was measured using a Spark 10 M microplate reader (Tecan Group Ltd., Männedorf, Switzerland) with excitation at 535 nm and emission at 600 nm. The IC₅₀ was defined as the concentration of compound required to inhibit cell proliferation by 50% compared to cells treated with the highest DMSO concentration.
(§2) To test the newly synthesized compounds, various human cell lines were employed. HD-MB03 cells were purchased from DSMZ (Braunschweig, Germany), while A549, MDA-MB-231, RPMI-8420, SU-DHL-8, TOLEDO, VL51, SU-DHL-1, SU-DHL-18, and KM-H2 were obtained from ATCC (Manassas, VA, USA). Cells were cultured in DMEM (for MDA-MB-231 and A549) or RPMI-1640 (for RPMI-8420, SU-DHL-8, TOLEDO, VL51, SU-DHL-1, SU-DHL-18, KM-H2, and HD-MB03) media (Gibco, Milan, Italy). Both media were supplemented with 115 units/mL penicillin G (Gibco, Milan, Italy), 115 µg/mL streptomycin (Invitrogen, Milan, Italy), and 10% fetal bovine serum (Invitrogen, Milan, Italy). Peripheral blood mononuclear cells (PBMCs) were isolated from healthy donors as previously described. ^[1] For cytotoxicity assays, PBMCs were resuspended at 5 × 10⁵ cells/mL in complete RPMI medium with or without 2.5 µg/mL phytohemagglutinin (PHA) (Irvine Scientific) to stimulate T cell activation and proliferation. All cell lines were maintained at 37 °C in a humidified atmosphere containing 5% CO₂. All compounds were dissolved in DMSO at a 10 mM stock concentration. For dose–response assays, cells were seeded in 96-well plates at densities optimized for each cell line: HD-MB03 at 10,000 cells/well, A549 at 4,000 cells/well, and MDA-MB-231 at 7,000 cells/well. All other cell lines were seeded at 20,000 cells/well in a final volume of 100 µL per well. After 24 hours, cells were treated with a 6-point serial dilution of compounds starting from 10 µM, in triplicate for statistical analysis. Seventy-two hours post-treatment, 10 µL of resazurin solution (100 µg/mL) was added to each well, and cells were incubated for an additional 3–6 hours. Fluorescence was measured using a Spark 10M microplate reader (Tecan Group Ltd., Männedorf, Switzerland) with excitation at 535 nm and emission at 600 nm. […]
(In general: Alamar Blue is a resazurin reagent that responds to reducing activity.)

In the next assay the test system is MDA-MB-231. Described as above. The note with it: Homo sapiens, triple-negative breast cancer, 72 h of treatment, mean ± SEM. On the procedure: as §1, §2
A further assay relates to SU-DHL-8. The description is as above. The note with it: Homo sapiens, B lymphocyte, large cell lymphoma, 72 h of treatment, mean ± SEM. On the procedure: as §1, §2
The test system of assay [1] is peripheral blood mononuclear cells (PBMCs). Kind of assay: Antiproliferative/cytotoxicity assay on PBMCs from a healthy donor. The note with it: Homo sapiens, PBMC. The protocol: To assess the potential toxicity of the most promising quinoline derivatives 4i, 4n, 4s, and 4ah, an antiproliferative assay was performed, using peripheral blood mononuclear cells (PBMCs) isolated from a healthy donor.
as §1
as §2, with “hours.” for “hours. Fluorescence was measured using a Spark 10M microplate reader (Tecan Group Ltd., Männedorf, Switzerland) with excitation at 535 nm and emission at 600 nm.”

Setting [2] is: PBMCs stimulated with 2.5 µg/mL PHA, read-out: IC50 phytohemagglutinin-stimulated PBMCs.
Setting [3] is: resting PBMCs from a healthy donor, read-out: IC50 resting PBMCs.

The term IC50 denotes the concentration that inhibits the measured activity by half. For the molecule `COc1cc(/C=C/c2cc(C(=O)Nc3c(C)cccc3C)c3ccccc3n2)cc(OC)c1OC` [4n, (E)-N-(2,6-dimethylphenyl)-2-(3,4,5-trimethoxystyryl)quinoline-4-carboxamide], the half-inhibitory concentration (IC50) in the assay with HD-MB03 is more than 10 µM; with MDA-MB-231, more than 10 µM; in the assay with SU-DHL-8, 0.46 ± 0.05 µM; in assay [1] (setting [2]), more than 10 µM; in assay [1] (setting [3]) it was more than 10 µM.

Turning to `O=C(Nc1ccc(Cl)cc1)c1cc(/C=C/c2ccccc2[N+](=O)[O-])nc2ccccc12` [4ah, (E)-N-(4-chlorophenyl)-2-(2-nitrostyryl)quinoline-4-carboxamide], the IC50 was more than 10 µM in the assay on HD-MB03; 4.99 ± 0.35 µM in the assay with MDA-MB-231; 2.15 ± 0.45 µM in the assay on SU-DHL-8; more than 10 µM in assay [1] (setting [2]); more than 10 µM in assay [1] (setting [3]).

Take `COc1cc(/C=C/c2cc(C(=O)Nc3ccc([N+](=O)[O-])cc3)c3ccccc3n2)cc(OC)c1OC` [4s, (E)-N-(4-nitrophenyl)-2-(3,4,5-trimethoxystyryl)quinoline-4-carboxamide]: the IC50 with HD-MB03 was more than 10 µM; in the assay on MDA-MB-231 it was more than 10 µM; in the assay on SU-DHL-8 it was 1.37 ± 0.14 µM; in assay [1] (setting [2]), more than 10 µM; in assay [1] (setting [3]) it was more than 10 µM.

As for `O=C(Nc1ccc([N+](=O)[O-])cc1)c1cc(/C=C/c2ccccc2)nc2ccccc12` [4i, (E)-N-(4-nitrophenyl)-2-styrylquinoline-4-carboxamide], the concentration for half-maximal inhibition (IC50) was more than 10 µM in the assay with HD-MB03; more than 10 µM with MDA-MB-231; 1.64 ± 0.25 µM in the assay on SU-DHL-8; more than 10 µM in assay [1] (setting [2]); more than 10 µM in assay [1] (setting [3]).
